Results as given in patent publication US10322111B2, “Chemokine receptor binding heterocyclic compounds with enhanced efficacy” (Genzyme Corporation, priority 2001, dated 2019).
Where two headings read alike, the source gives them in different places.

Columns and labels:
progenitor cells = conditions: mice, AMD3100 5 mg/Kg s.c. + MIP-1α 5 μg I.V., 11 hours after rhu G-CSF or saline, blood 1 hour later
Experimental: One hour later, the mice were sacrificed and the number of progenitor cells per mL of blood were measured.

[1] = test system: CFU-GM, BFU-E and CFU-GEMM progenitor cells; conditions: 80 μg/kg s.c.

In the case of `c1cc(CN2CCCNCCNCCCNCC2)ccc1CN1CCCNCCNCCCNCC1` [AMD3100, 1,1′-[1,4-phenylene-bis(methylene)]-bis-1,4,8,11-tetraazacyclotetradecane], the “mobilization of progenitor cells in combination with mu MIP-1α” value (progenitor cells) is reported as “additive to greater than additive”, the “Absolute # of Progenitors per ML, BFU-E” value ([1]; P1, T = 1 h after injection) is reported as 674 per ML and the “Absolute # of Progenitors per ML, CFU-GEMM” value (shortened to “Absolute # … per ML, CFU-GEMM”) ([1]; P1, T = 1 h after injection) is reported as 264 per ML. The “Absolute # of Progenitors per ML, CFU-GM” value ([1]; P1, T = 1 h after injection) was 1259 per ML, the “fold change from T=0, progenitors BFU-E, methylcellulose culture” value (“fold change from T=0, progenitors BFU-E” for short) ([1]; P1, T = 1 h after injection) was 2.58 fold and the “fold change from T=0, progenitors CFU-GEMM, methylcellulose culture” value ([1]; P1, T = 1 h after injection) was 2.07 fold. For the same molecule, the “fold change from T=0, progenitors CFU-GM, methylcellulose culture” value (from here on “fold change from T=0, progenitors CFU-GM”) ([1]; P1, T = 1 h after injection) was 5.09 fold, the “Absolute # of Progenitors per ML, BFU-E” value ([1]; P1, T = 3 h after injection) was 1340 per ML and the “Absolute # … per ML, CFU-GEMM” value ([1]; P1, T = 3 h after injection) was 540 per ML. For the same molecule, the “Absolute # of Progenitors per ML, CFU-GM” value ([1]; P1, T = 3 h after injection) was 1760 per ML, the “fold change from T=0, progenitors BFU-E” value ([1]; P1, T = 3 h after injection) was 5.13 fold and the “fold change from T=0, progenitors CFU-GEMM, methylcellulose culture” value ([1]; P1, T = 3 h after injection) was 4.25 fold. For the same molecule, the “fold change from T=0, progenitors CFU-GM” value ([1]; P1, T = 3 h after injection) was 7.12 fold, the “Absolute # of Progenitors per ML, BFU-E” value ([1]; P1, T = 6 h after injection) was 2388 per ML and the “Absolute # … per ML, CFU-GEMM” value ([1]; P1, T = 6 h after injection) was 949 per ML. The “Absolute # of Progenitors per ML, CFU-GM” value ([1]; P1, T = 6 h after injection) was 3624 per ML, the “fold change from T=0, progenitors BFU-E” value ([1]; P1, T = 6 h after injection) was 9.14 fold and the “fold change from T=0, progenitors CFU-GEMM, methylcellulose culture” value ([1]; P1, T = 6 h after injection) was 7.47 fold. The “fold change from T=0, progenitors CFU-GM” value ([1]; P1, T = 6 h after injection) was 14.66 fold, the “Absolute # of Progenitors per ML, BFU-E” value ([1]; P1, T = 9 h after injection) was 1418 per ML and the “Absolute # … per ML, CFU-GEMM” value ([1]; P1, T = 9 h after injection) was 335 per ML. The “Absolute # of Progenitors per ML, CFU-GM” value ([1]; P1, T = 9 h after injection) was 1547 per ML, the “fold change from T=0, progenitors BFU-E” value ([1]; P1, T = 9 h after injection) was 5.43 fold and the “fold change from T=0, progenitors CFU-GEMM, methylcellulose culture” value ([1]; P1, T = 9 h after injection) was 2.64 fold. For the same molecule, the “fold change from T=0, progenitors CFU-GM” value ([1]; P1, T = 9 h after injection) was 6.26 fold, the “Absolute # of Progenitors per ML, BFU-E” value ([1]; P1, T = 24 h after injection) was 278 per ML and the “Absolute # … per ML, CFU-GEMM” value ([1]; P1, T = 24 h after injection) was 142 per ML. For the same molecule, the “Absolute # of Progenitors per ML, CFU-GM” value ([1]; P1, T = 24 h after injection) was 271 per ML, the “fold change from T=0, progenitors BFU-E” value ([1]; P1, T = 24 h after injection) was 1.06 fold and the “fold change from T=0, progenitors CFU-GEMM, methylcellulose culture” value ([1]; P1, T = 24 h after injection) was 1.12 fold. For the same molecule, the “fold change from T=0, progenitors CFU-GM” value ([1]; P1, T = 24 h after injection) was 1.10 fold, the “Absolute # of Progenitors per ML, BFU-E” value ([1]; P2, T = 1 h after injection) was 608 per ML and the “Absolute # … per ML, CFU-GEMM” value ([1]; P2, T = 1 h after injection) was 272 per ML. The “Absolute # of Progenitors per ML, CFU-GM” value ([1]; P2, T = 1 h after injection) was 1455 per ML, the “fold change from T=0, progenitors BFU-E” value ([1]; P2, T = 1 h after injection) was 1.48 fold and the “fold change from T=0, progenitors CFU-GEMM, methylcellulose culture” value ([1]; P2, T = 1 h after injection) was 2.26 fold. The “fold change from T=0, progenitors CFU-GM” value ([1]; P2, T = 1 h after injection) was 5.33 fold, the “Absolute # of Progenitors per ML, BFU-E” value ([1]; P2, T = 3 h after injection) was 809 per ML and the “Absolute # … per ML, CFU-GEMM” value ([1]; P2, T = 3 h after injection) was 418 per ML. For the same molecule, the “Absolute # of Progenitors per ML, CFU-GM” value ([1]; P2, T = 3 h after injection) was 4646 per ML, the “fold change from T=0, progenitors BFU-E” value ([1]; P2, T = 3 h after injection) was 1.98 fold and the “fold change from T=0, progenitors CFU-GEMM, methylcellulose culture” value ([1]; P2, T = 3 h after injection) was 3.47 fold. The “fold change from T=0, progenitors CFU-GM” value ([1]; P2, T = 3 h after injection) was 17.02 fold, the “Absolute # of Progenitors per ML, BFU-E” value ([1]; P2, T = 6 h after injection) was 1502 per ML and the “Absolute # … per ML, CFU-GEMM” value ([1]; P2, T = 6 h after injection) was 1126 per ML. The “Absolute # of Progenitors per ML, CFU-GM” value ([1]; P2, T = 6 h after injection) was 6540 per ML, the “fold change from T=0, progenitors BFU-E” value ([1]; P2, T = 6 h after injection) was 3.67 fold and the “fold change from T=0, progenitors CFU-GEMM, methylcellulose culture” value ([1]; P2, T = 6 h after injection) was 9.35 fold. The “fold change from T=0, progenitors CFU-GM” value ([1]; P2, T = 6 h after injection) was 23.96 fold, the “Absolute # of Progenitors per ML, BFU-E” value ([1]; P2, T = 9 h after injection) was 1886 per ML and the “Absolute # … per ML, CFU-GEMM” value ([1]; P2, T = 9 h after injection) was 854 per ML. For the same molecule, the “Absolute # of Progenitors per ML, CFU-GM” value ([1]; P2, T = 9 h after injection) was 3416 per ML, the “fold change from T=0, progenitors BFU-E” value ([1]; P2, T = 9 h after injection) was 4.61 fold and the “fold change from T=0, progenitors CFU-GEMM, methylcellulose culture” value ([1]; P2, T = 9 h after injection) was 7.09 fold. The “fold change from T=0, progenitors CFU-GM” value ([1]; P2, T = 9 h after injection) was 12.51 fold, the “Absolute # of Progenitors per ML, BFU-E” value ([1]; P2, T = 24 h after injection) was 768 per ML and the “Absolute # … per ML, CFU-GEMM” value ([1]; P2, T = 24 h after injection) was 316 per ML. The “Absolute # of Progenitors per ML, CFU-GM” value ([1]; P2, T = 24 h after injection) was 521 per ML, the “fold change from T=0, progenitors BFU-E” value ([1]; P2, T = 24 h after injection) was 1.88 fold and the “fold change from T=0, progenitors CFU-GEMM, methylcellulose culture” value ([1]; P2, T = 24 h after injection) was 2.62 fold. The “fold change from T=0, progenitors CFU-GM” value ([1]; P2, T = 24 h after injection) was 1.91 fold, the “Absolute # of Progenitors per ML, BFU-E” value ([1]; P3, T = 1 h after injection) was 806 per ML and the “Absolute # … per ML, CFU-GEMM” value ([1]; P3, T = 1 h after injection) was 312 per ML. For the same molecule, the “Absolute # of Progenitors per ML, CFU-GM” value ([1]; P3, T = 1 h after injection) was 1040 per ML, the “fold change from T=0, progenitors BFU-E” value ([1]; P3, T = 1 h after injection) was 2.30 fold and the “fold change from T=0, progenitors CFU-GEMM, methylcellulose culture” value ([1]; P3, T = 1 h after injection) was 2.22 fold. The “fold change from T=0, progenitors CFU-GM” value ([1]; P3, T = 1 h after injection) was 3.70 fold, the “Absolute # of Progenitors per ML, BFU-E” value ([1]; P3, T = 3 h after injection) was 915 per ML and the “Absolute # … per ML, CFU-GEMM” value ([1]; P3, T = 3 h after injection) was 610 per ML. For the same molecule, the “Absolute # of Progenitors per ML, CFU-GM” value ([1]; P3, T = 3 h after injection) was 4233 per ML, the “fold change from T=0, progenitors BFU-E” value ([1]; P3, T = 3 h after injection) was 2.61 fold and the “fold change from T=0, progenitors CFU-GEMM, methylcellulose culture” value ([1]; P3, T = 3 h after injection) was 4.34 fold. The “fold change from T=0, progenitors CFU-GM” value ([1]; P3, T = 3 h after injection) was 15.07 fold, the “Absolute # of Progenitors per ML, BFU-E” value ([1]; P3, T = 6 h after injection) was 1593 per ML and the “Absolute # … per ML, CFU-GEMM” value ([1]; P3, T = 6 h after injection) was 916 per ML. The “Absolute # of Progenitors per ML, CFU-GM” value ([1]; P3, T = 6 h after injection) was 5895 per ML, the “fold change from T=0, progenitors BFU-E” value ([1]; P3, T = 6 h after injection) was 4.54 fold and the “fold change from T=0, progenitors CFU-GEMM, methylcellulose culture” value ([1]; P3, T = 6 h after injection) was 6.52 fold. For the same molecule, the “fold change from T=0, progenitors CFU-GM” value ([1]; P3, T = 6 h after injection) was 20.99 fold, the “Absolute # of Progenitors per ML, BFU-E” value ([1]; P3, T = 9 h after injection) was 1302 per ML and the “Absolute # … per ML, CFU-GEMM” value ([1]; P3, T = 9 h after injection) was 347 per ML. The “Absolute # of Progenitors per ML, CFU-GM” value ([1]; P3, T = 9 h after injection) was 2647 per ML, the “fold change from T=0, progenitors BFU-E” value ([1]; P3, T = 9 h after injection) was 3.71 fold and the “fold change from T=0, progenitors CFU-GEMM, methylcellulose culture” value ([1]; P3, T = 9 h after injection) was 2.47 fold. For the same molecule, the “fold change from T=0, progenitors CFU-GM” value ([1]; P3, T = 9 h after injection) was 9.42 fold, the “Absolute # of Progenitors per ML, BFU-E” value ([1]; P3, T = 24 h after injection) was 402 per ML and the “Absolute # … per ML, CFU-GEMM” value ([1]; P3, T = 24 h after injection) was 97 per ML. The “Absolute # of Progenitors per ML, CFU-GM” value ([1]; P3, T = 24 h after injection) was 402 per ML, the “fold change from T=0, progenitors BFU-E” value ([1]; P3, T = 24 h after injection) was 1.14 fold and the “fold change from T=0, progenitors CFU-GEMM, methylcellulose culture” value ([1]; P3, T = 24 h after injection) was 0.69 fold.
